Test results as given in patent US20230131402A1, “SPIRO-LACTAM NMDA RECEPTOR MODULATORS AND USES THEREOF” (Aptinyx Inc., priority 2016, published 2023).
Like-named read-outs stand apart in the source and are kept apart here.

Assays:
[1] = Oral pharmacokinetics (plasma, brain, CSF); conditions: rat, per os, 10 mg/kg
Protocol: Plasma, brain, and CSF samples were analyzed at various time points over a 24 hour period.

NMDAR2B = target: T1, NMDAR2B (Homo sapiens, UniProt Q13224); experiment: [3H]MK-801 binding, NMDAR2B expressing HEK cell membranes; type: biochemical; conditions: 50 μM glutamate; for EC50: read-out: NMDAR2B B: log EC50 (converted); for Emax: read-out: NMDAR2B A: % maximal [3H]MK-801 binding relative to 1 mM glycine
T1 construct: expressed in transfected cells; host or cells: HEK cells (membrane extract)
Protocol: (§1) Assays were conducted as described by Moskal et al., “GLYX-13: a monoclonal antibody-derived peptide that acts as an N-methyl-D-aspartate receptor modulator,” Neuropharmacology, 49, 1077-87, 2005. These studies were designed to determine if the test compounds act to facilitate NMDAR activation in NMDAR2A, NMDAR2B, NMDAR2C or NMDAR2D expressing HEK cell membranes as measured by increases in [^3H]MK-801 binding.
(§2) In the assay, 300 μg of NMDAR expressing HEK cell membrane extract protein was preincubated for 15 minutes at 25° C. in the presence of saturating concentrations of glutamate (50 μM) and varying concentrations of test compound (1×10^−15M−1×10^−7M), or 1 mM glycine. Following the addition of 0.3 μCi of [^3H]MK-801 (22.5 Ci/mmol), reactions were again incubated for 15 minutes at 25° C. (nonequilibrium conditions). Bound and free [^3H]MK-801 were separated via rapid filtration using a Brandel apparatus.
(§3) In analyzing the data, the DPM (disintegrations per minute) of [^3H]MK-801 remaining on the filter were measured for each concentration of test compound or for 1 mM glycine. The DPM values for each concentration of a ligand (N=2) were averaged. The baseline value was determined from the best fit curve of the DPM values modeled using the GraphPad program and the log(agonist) vs. response(three parameters) algorithm was then subtracted from all points in the dataset. The % maximal [^3H]MK-801 binding was then calculated relative to that of 1 mM glycine: all baseline subtracted DPM values were divided by the average value for 1 mM glycine. The EC50 and % maximal activity were then obtained from the best fit curve of the % maximal [^3H]MK-801 binding data modelled using the GraphPad program and the log(agonist) vs. response(three parameters) algorithm.
(§4) The tables below summarize the results for the wild type NMDAR agonists NMDAR2A, NMDAR2B, NMDAR2C, and NMDAR2D, and whether the compound is not an agonist (−), is an agonist (+), or is a strong agonist (++), where column A is based on the % maximal [^3H]MK-801 binding relative to 1 mM glycine (−=0; <100%=+; and >100%=++); and column B is based on log EC50 values (0=−; ≥1×10^−9M (e.g., −8)=+; and <1×10^−9M (e.g., −10)=++).

IV pharmacokinetics = type: in vivo, Sprague Dawley rats; conditions: rat, 2 mg/kg, normal saline (compounds marked * in 1% NMP and 99% normal saline); for Vd: read-out: Vss
Text: The table below summarizes the results of the IV pharmacokinetics.

[2] = test system: positive (hedonic) 50-kHz ultrasonic vocalizations (USVs); experiment: Positive emotional learning (PEL) test; type: in vivo, rats; conditions: rat, PO, 1 h after administration
Protocol: Experiments were conducted as described in Burgdorf et al., “The effect of selective breeding for differential rates of 50-kHz ultrasonic vocalizations on emotional behavior in rats,” Devel. Psychobiol., 51:34-46 (2009). Rat 50-kHz ultrasonic vocalization (hedonic USVs) is a validated model for the study of positive affective state and is best elicited by rough-and-tumble play.
The PEL assay measures the acquisition of positive (hedonic) 50-kHz ultrasonic vocalizations (USVs) to a social stimulus, heterospecific rough and tumble play stimulation. Heterospecific rough-and-tumble play stimulation was administered by the experimenter's right hand. One hour after administration of test compound or vehicle negative control (0.5% sodium carboxymethyl cellulose in 0.9% sterile saline vehicle), animals received 3 min of heterospecific rough-and-tumble play that consisted of alternating 15 sec blocks of heterospecific play and 15 sec of no-stimulation. High frequency ultrasonic vocalizations (USVs) were recorded and analyzed by sonogram with Avasoft SASlab Pro (Germany) as previously described by Burgdorf et al., “Positive emotional learning is regulated in the medial prefrontal cortex by GluN2B-containing NMDA receptors,” Neuroscience, 192:515-523 (2011). Frequency modulated 50-kHz US V s that occurred during each of the no-stimulation periods were quantified to measure PEL. Animals were not habituated to play stimulation before testing. Positive emotional learning was measured during the conditioned stimulus (CS) trials preceding the tickle unconditioned stimulus (UCS) trials. Animals received 15 second trials consisting of 6 CS and 6 UCS trials each (3 min total).
The table below summarizes the findings. As each experiment includes its own vehicle group, an example (typical) vehicle score is shown. Max effect (mean number of 50 kHz USVs per 15 seconds) is reported as ∧: <6.0; *: 6.0-7.6; **: 7.7-10; ***: 10.1-20.

NMDAR2A = target: T2, NMDAR2A (Homo sapiens, UniProt Q12879); experiment: [3H]MK-801 binding, NMDAR2A expressing HEK cell membranes; type: biochemical; conditions: 50 μM glutamate; for EC50: read-out: NMDAR2A B: log EC50 (converted); for Emax: read-out: NMDAR2A A: % maximal [3H]MK-801 binding relative to 1 mM glycine
T2 construct: expressed in transfected cells; host or cells: HEK cells (membrane extract)
Protocol: as §1, §2, §3, §4

NMDAR2C = target: T3, NMDAR2C (Homo sapiens, UniProt Q14957); experiment: [3H]MK-801 binding, NMDAR2C expressing HEK cell membranes; type: biochemical; conditions: 50 μM glutamate; for EC50: read-out: NMDAR2C B: log EC50 (converted)
T3 construct: expressed in transfected cells; host or cells: HEK cells (membrane extract)
Protocol: as §1, §2, §3, §4

NMDAR2D [3] = target: T4, NMDAR2D (Homo sapiens, UniProt O15399); experiment: [3H]MK-801 binding, NMDAR2D expressing HEK cell membranes; type: biochemical; conditions: 50 μM glutamate; for EC50: read-out: NMDAR2D B: log EC50 (converted)
T4 construct: expressed in transfected cells; host or cells: HEK cells (membrane extract)
Protocol: as §1, §2, §3, §4

NMDAR2D [4] = target: T5, NMDAR2D (Homo sapiens, UniProt O15399+Q05586); experiment: as above; type: biochemical; conditions: 50 μM glutamate, read-out: NMDAR2D B: log EC50 (converted)
T5 construct: expressed in transfected cells; host or cells: HEK cells (membrane extract)
Protocol: as §1, §2, §3, §4

[5] = normal saline (compounds marked * in 1% NMP and 99% normal saline)
[6] = plasma, normal saline (compounds marked * in 1% NMP and 99% normal saline)
[7] = Sprague Dawley, plasma, po, Tmax, normal saline (compounds marked * in 1% NMP and 99% normal saline)
[8] = Sprague Dawley, in vivo, iv, read-out: C0

T4 sequence (O15399 28-1336, species assumed, other chains not shown): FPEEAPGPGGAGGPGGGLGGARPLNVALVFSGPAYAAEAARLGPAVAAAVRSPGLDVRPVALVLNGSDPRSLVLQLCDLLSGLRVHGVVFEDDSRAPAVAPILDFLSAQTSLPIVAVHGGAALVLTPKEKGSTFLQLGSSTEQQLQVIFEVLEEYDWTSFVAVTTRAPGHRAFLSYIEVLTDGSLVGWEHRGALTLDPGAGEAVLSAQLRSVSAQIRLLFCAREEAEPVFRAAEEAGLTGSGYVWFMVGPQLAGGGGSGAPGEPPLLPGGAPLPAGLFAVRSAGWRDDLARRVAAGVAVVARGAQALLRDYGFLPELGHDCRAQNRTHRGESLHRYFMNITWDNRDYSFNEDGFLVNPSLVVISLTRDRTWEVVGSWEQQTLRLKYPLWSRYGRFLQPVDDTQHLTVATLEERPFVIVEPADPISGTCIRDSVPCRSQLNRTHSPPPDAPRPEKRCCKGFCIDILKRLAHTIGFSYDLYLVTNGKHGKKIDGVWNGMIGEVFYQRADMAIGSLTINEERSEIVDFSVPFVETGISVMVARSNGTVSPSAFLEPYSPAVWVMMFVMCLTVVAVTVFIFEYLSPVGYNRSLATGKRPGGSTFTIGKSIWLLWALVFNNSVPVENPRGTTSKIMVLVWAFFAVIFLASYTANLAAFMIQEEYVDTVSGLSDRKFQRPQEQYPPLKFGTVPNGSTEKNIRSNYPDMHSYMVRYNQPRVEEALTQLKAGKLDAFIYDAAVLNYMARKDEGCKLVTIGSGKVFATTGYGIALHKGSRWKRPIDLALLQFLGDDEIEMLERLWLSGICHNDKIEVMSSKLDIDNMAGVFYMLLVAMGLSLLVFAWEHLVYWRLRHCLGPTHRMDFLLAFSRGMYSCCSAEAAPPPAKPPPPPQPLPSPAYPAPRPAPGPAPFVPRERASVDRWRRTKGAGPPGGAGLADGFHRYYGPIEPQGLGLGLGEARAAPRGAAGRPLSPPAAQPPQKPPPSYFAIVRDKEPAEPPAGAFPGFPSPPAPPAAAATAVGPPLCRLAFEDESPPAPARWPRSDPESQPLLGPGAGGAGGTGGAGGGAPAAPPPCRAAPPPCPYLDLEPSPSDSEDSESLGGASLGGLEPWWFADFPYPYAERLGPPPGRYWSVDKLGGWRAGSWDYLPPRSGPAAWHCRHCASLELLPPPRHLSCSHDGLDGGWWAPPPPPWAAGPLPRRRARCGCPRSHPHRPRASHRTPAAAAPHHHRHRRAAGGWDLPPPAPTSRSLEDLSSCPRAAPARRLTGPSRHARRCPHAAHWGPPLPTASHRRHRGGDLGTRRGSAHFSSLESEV
T2 sequence (Q12879 23-1464, species assumed, other chains not shown): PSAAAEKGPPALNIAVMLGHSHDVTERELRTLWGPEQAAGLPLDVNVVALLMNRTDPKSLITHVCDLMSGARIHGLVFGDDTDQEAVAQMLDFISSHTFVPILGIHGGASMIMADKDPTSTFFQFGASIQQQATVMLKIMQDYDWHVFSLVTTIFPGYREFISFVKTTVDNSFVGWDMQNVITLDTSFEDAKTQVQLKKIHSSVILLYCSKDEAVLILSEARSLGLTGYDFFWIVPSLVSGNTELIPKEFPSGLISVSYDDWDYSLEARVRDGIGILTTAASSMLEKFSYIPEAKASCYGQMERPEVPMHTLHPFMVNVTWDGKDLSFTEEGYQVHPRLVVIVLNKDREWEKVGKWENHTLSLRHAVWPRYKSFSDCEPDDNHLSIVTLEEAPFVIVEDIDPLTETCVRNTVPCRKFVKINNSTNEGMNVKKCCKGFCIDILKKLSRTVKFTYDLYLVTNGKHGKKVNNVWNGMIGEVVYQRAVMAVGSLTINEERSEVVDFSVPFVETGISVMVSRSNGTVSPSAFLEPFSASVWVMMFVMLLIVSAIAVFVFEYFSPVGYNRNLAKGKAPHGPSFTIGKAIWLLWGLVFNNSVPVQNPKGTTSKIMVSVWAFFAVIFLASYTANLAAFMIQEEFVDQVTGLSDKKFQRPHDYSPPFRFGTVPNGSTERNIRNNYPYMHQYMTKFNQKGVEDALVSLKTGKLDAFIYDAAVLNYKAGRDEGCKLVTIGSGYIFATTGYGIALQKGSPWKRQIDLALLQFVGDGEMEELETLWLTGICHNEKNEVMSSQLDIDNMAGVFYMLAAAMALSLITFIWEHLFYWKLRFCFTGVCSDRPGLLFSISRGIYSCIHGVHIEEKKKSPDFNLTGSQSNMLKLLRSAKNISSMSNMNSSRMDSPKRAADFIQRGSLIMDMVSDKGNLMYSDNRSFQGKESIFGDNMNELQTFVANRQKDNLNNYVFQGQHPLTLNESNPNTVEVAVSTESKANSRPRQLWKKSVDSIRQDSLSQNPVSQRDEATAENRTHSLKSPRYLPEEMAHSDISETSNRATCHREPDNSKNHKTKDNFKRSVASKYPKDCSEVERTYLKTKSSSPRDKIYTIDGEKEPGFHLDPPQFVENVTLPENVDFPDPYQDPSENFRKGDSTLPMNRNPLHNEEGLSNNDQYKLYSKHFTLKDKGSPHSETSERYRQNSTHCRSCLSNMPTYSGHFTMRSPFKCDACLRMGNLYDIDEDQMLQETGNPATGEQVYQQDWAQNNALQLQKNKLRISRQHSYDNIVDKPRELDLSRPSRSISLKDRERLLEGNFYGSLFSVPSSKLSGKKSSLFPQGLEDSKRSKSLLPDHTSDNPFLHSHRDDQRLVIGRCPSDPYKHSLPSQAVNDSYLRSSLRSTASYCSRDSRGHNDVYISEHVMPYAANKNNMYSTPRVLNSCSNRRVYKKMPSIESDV
T1 sequence (Q13224 27-1484, species assumed, other chains not shown): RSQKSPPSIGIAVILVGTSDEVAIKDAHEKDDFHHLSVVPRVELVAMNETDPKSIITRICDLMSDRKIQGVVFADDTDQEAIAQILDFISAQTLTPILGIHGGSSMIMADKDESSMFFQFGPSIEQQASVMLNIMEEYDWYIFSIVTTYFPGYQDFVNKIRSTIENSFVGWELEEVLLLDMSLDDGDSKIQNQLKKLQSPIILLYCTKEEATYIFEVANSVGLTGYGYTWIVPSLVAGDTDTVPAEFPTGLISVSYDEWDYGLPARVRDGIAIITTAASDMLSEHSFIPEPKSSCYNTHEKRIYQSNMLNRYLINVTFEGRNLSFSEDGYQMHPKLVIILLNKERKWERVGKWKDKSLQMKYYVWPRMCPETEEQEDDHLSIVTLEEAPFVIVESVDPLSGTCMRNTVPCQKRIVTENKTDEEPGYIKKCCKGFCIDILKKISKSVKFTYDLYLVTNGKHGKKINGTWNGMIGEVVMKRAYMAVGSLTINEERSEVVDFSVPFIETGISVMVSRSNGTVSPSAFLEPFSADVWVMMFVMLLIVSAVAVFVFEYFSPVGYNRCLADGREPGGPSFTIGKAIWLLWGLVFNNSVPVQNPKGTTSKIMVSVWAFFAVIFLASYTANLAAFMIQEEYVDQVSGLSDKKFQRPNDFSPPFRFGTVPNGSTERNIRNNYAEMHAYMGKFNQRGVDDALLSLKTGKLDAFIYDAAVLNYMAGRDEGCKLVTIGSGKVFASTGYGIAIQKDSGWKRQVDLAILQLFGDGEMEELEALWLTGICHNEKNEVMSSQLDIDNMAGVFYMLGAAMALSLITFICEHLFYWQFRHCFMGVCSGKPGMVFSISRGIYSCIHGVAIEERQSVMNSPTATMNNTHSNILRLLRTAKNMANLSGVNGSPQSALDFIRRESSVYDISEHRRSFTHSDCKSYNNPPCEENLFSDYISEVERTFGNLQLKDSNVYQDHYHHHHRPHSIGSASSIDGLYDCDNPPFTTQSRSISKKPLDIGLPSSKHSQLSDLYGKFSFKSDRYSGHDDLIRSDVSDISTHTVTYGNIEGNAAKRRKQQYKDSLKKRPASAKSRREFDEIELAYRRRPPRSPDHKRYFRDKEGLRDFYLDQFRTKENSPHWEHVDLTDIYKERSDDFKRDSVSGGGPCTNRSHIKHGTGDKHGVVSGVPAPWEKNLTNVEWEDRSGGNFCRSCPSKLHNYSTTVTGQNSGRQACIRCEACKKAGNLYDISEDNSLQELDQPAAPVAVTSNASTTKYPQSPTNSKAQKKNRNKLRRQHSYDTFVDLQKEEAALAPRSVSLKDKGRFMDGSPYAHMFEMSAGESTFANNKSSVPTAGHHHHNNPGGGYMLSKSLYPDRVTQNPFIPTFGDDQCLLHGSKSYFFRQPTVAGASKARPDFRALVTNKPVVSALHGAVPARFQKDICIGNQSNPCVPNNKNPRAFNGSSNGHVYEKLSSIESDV
T5 sequence (O15399 28-1336, species assumed, other chains not shown): as the sequence (O15399 28-1336, species assumed, other chains not shown) above

Row | SMILES | CSF Cmax [1] [µg/mL] | Cmax [1, 6] [µg/mL] | NMDAR2B A: % maximal [3H]MK-801 binding relative to 1 mM glycine (NMDAR2B) | EC50 (NMDAR2B) [nM] | NMDAR2A A: % maximal [3H]MK-801 binding relative to 1 mM glycine (NMDAR2A) | EC50 (NMDAR2A) [nM] | NMDAR2C A: % maximal [3H]MK-801 binding relative to 1 mM glycine (NMDAR2C) | EC50 (NMDAR2C) [nM] | NMDAR2D A: % maximal [3H]MK-801 binding relative to 1 mM glycine (NMDAR2D [3]) | Max Effect (mean number of 50 kHz USVs per 15 seconds) ([2]; dose .1 mg/kg) | Emax (NMDAR2A) [%] | Emax (NMDAR2B) [%] | also measured
1 | CN1CCN(Cc2ccccc2)C2(CNC2=O)C1 (single isomer, unassigned) [EG-1, 5-Benzyl-8-Methyl-2,5,8-Triazaspiro[3.5]Nonan-1-One] | 0.36718 | 0.7004 | + (<100%=+) | < 1 | + (<100%=+) | < 1 | ++ (>100%=++) | > 1 | − (−=0) | – | – | – | % F [1]: 14%; Brain Cmax [1]: 0.3343 µg/mL; AUClast [1, 5]: 0.42879 µg·h/mL; Tmax [1, 5]: 15 min; AUClast (IV pharmacokinetics): 0.62205 µg·h/mL; C0 (IV pharmacokinetics): 2.01043 µg/mL; Cl (IV pharmacokinetics): 3.211 L/h/kg; T1/2 (IV pharmacokinetics): 25.8 min; Vss (IV pharmacokinetics): 0.96 L/kg; Max Effect (mean number of 50 kHz USVs per 15 seconds) ([2]; dose .001-1 mg/kg): *** (***: 10.1-20)
2 | C[C@@H](O)[C@H](N)C(=O)N1CCNC2(CNC2=O)C1 (single isomer, unassigned) [EK-2, 8-(L-Threonyl)-2,5,8-Triazaspiro[3.5]Nonan-1-One] | 0.0816 | 1.9105 | + (<100%=+) | < 1 | – | > 1 | – | – | – | * (*: 6.0-7.6) | < 100 | – | Tmax [1, 5]: 60 min
3 | CC(C)(C)OC(=O)N1CCN(C(=O)OC(C)(C)C)C2(CNC2=O)C1 (single isomer, unassigned) [EE-2, Di-Tert-Butyl 1-Oxo-2,5,8-Triazaspiro[3.5]Nonane-5,8-Dicarboxylate] | – | – | + (<100%=+) | < 1 | − (−=0) | – | + (<100%=+) | < 1 | − (−=0) | – | – | – | –
4 | CN1CCN(C(=O)OC(C)(C)C)CC12CN(CC(N)=O)C2=O (centres unmarked) [ER-118] | – | – | + (<100%=+) | < 1 | − (−=0) | – | − (−=0) | – | ++ (>100%=++) | – | – | – | EC50 (NMDAR2D [3]): < 1 nM
5 | C[C@@H](O)[C@H](N)C(=O)N1CCN(Cc2ccccc2)C2(CNC2=O)C1 (single isomer, unassigned) [EL-1, 8-(L-Threonyl)-5-Benzyl-2,5,8-Triazaspiro[3.5]Nonan-1-One] | 0.0569 | – | – | < 1 | – | – | – | – | – | *** (***: 10.1-20) | 0 | < 100 | bioavailability ([1]; Sprague Dawley, plasma, po, % F): 90%; AUC(0-t) ([1]; Sprague Dawley, plasma, po, AUClast, normal saline (compounds marked * in 1% NMP and 99% normal saline)): 19.4 µg·h/mL; Cmax ([1]; Sprague Dawley, plasma, po, Cmax, normal saline (compounds marked * in 1% NMP and 99% normal saline)): 4.98 µg/mL; Tmax [1, 7]: 30 min; Brain Cmax [1]: 0.143 µg/mL; AUC(0-t) (IV pharmacokinetics; Sprague Dawley, in vivo, iv): 4.32 µg·h/mL; clearance (IV pharmacokinetics; Sprague Dawley, in vivo, iv): 0.441 L/h/kg; half-life (IV pharmacokinetics; Sprague Dawley, in vivo, iv): 406 min; C0 (IV pharmacokinetics; [8]): 3.25 µg/mL; Vd (IV pharmacokinetics; Sprague Dawley, in vivo, iv): 2.12 L/kg
6 | CC(C)(C)OC(=O)N1CCNC2(CNC2=O)C1 (single isomer, unassigned) [EB-2, Tort-Butyl 1-Oxo-2,5,8-Triazaspiro[3.5]Nonane-8-Carboxylate] | – | – | + (<100%=+) | > 1 | + (<100%=+) | < 1 | + (<100%=+) | < 1 | + (<100%=+) | – | – | – | EC50 (NMDAR2D [3]): < 1 nM
7 | CN1CCN(Cc2ccccc2)C2(CNC2=O)C1 (single isomer, unassigned) [EG-2, 5-Benzyl-8-Methyl-2,5,8-Triazaspiro[3.5]Nonan-1-One] | – | 3.52663 | − (−=0) | – | − (−=0) | – | + (<100%=+) | < 1 | + (<100%=+) | – | – | – | Tmax [1, 7]: 15 min; % F [1]: 100%; AUClast [1, 5]: 3.08239 µg·h/mL; AUC(0-t) (IV pharmacokinetics; Sprague Dawley, in vivo, iv): 0.4 µg·h/mL; clearance (IV pharmacokinetics; Sprague Dawley, in vivo, iv): 5 L/h/kg; half-life (IV pharmacokinetics; Sprague Dawley, in vivo, iv): 28.8 min; C0 (IV pharmacokinetics; [8]): 1.1 µg/mL; Vd (IV pharmacokinetics; Sprague Dawley, in vivo, iv): 1.87 L/kg; EC50 (NMDAR2D [4]): < 1 nM
8 | C[C@@H](O)[C@H](N)C(=O)N1CCN(C(=O)OC(C)(C)C)CC12CNC2=O (stereo partly drawn) [EC-2, Tert-Butyl 5-(L-Threonyl)-1-Oxo-2,5,8-Triazaspiro[3.5]Nonane-8-Carboxylate] | – | – | – | < 1 | – | > 1 | – | – | – | ** (**: 7.7-10) | < 100 | > 100 | –
9 | CN1CCNC2(CNC2=O)C1 (centres unmarked) [EH-1, 8-Methyl-2,5,8-Triazaspiro[3.5]Nonan-1-One] | – | – | – | < 1 | – | < 1 | − (−=0) | – | + (<100%=+) | – | < 100 | < 100 | EC50 (NMDAR2D [4]): < 1 nM
